Values after ≈ are worked out from the molar mass of the structure shown.
Assays:
[1] = Solubility in extremely nonpolar to polar solvents
[2] = Homogeneous incorporation into aqueous polymer dispersions (Example 25 of WO-A-99/40123 repeated); assay type: physicochemical
Text: Example 25 of WO-A-99/40123 was repeated to prepare aqueous polymer dispersions containing 15% by weight of the fluorescent colorant of Example 2 or […] of the near infrared absorber of Example 6 in homogeneous dispersion. The corresponding phenoxy-substituted derivatives, by contrast, were only incorporable with homogeneous results up to a concentration of respectively 7 and 1% by weight.

Compound	Solubility in Isopropanol (50° C.) [1]	Solubility in Pentane (25° C.) [1]	Solubility in Toluene (25° C.) [1]	Concentration contained in homogeneous dispersion in aqueous polymer dispersion [2]
CC(C)c1cccc(C(C)C)c1N1C(=O)c2ccc3c4c(Oc5ccc(C(C)(C)CC(C)(C)C)cc5)cc5c6c(ccc(c7c(Oc8ccc(C(C)(C)CC(C)(C)C)cc8)cc(c2c37)C1=O)c64)C(=O)N(c1c(C(C)C)cccc1C(C)C)C5=O [Example 4]	59 mg/mL (≈ 52.7 mM)	55 mg/mL (≈ 49.1 mM)	>250 mg/mL	–
CC(C)c1cccc(C(C)C)c1N1C(=O)c2cc(Oc3ccc(C(C)(C)CC(C)(C)C)cc3)c3c4c(Oc5ccc(C(C)(C)CC(C)(C)C)cc5)cc5c6c(cc(Oc7ccc(C(C)(C)CC(C)(C)C)cc7)c(c7c(Oc8ccc(C(C)(C)CC(C)(C)C)cc8)cc(c2c37)C1=O)c64)C(=O)N(c1c(C(C)C)cccc1C(C)C)C5=O [Example 2]	92 mg/mL (≈ 60.2 mM)	81 mg/mL (≈ 53 mM)	>400 mg/mL	15 % by weight
1:1 mixture of N,N′-bis(2,6-diisopropylphenyl)-1,6,8,11,16,18-hexa(p-tert-octylphenoxy)-quaterrylene-3,4:13,14-tetracarboxylic diimide and N,N′-bis(2,6-diisopropyl-phenyl)-1,6,8,11,16,19-hexa(p-tert-octylphenoxy)quaterrylene-3,4:13,14-tetracarboxylic diimide [Example 6]	49 mg/mL	55 mg/mL	>500 mg/mL	–
CCCCCCCCCCCCN1C(=O)c2ccc3c4c(Oc5ccc(C(C)(C)CC(C)(C)C)cc5)cc5c6c(ccc(c7c(Oc8ccc(C(C)(C)CC(C)(C)C)cc8)cc(c2c37)C1=O)c64)C(=O)N(CCCCCCCCCCCC)C5=O [Example 5]	47 mg/mL (≈ 41.4 mM)	24 mg/mL (≈ 21.1 mM)	155 mg/mL (≈ 136 mM)	–
CC(C)c1cccc(C(C)C)c1N1C(=O)c2cc(Oc3ccc(C(C)(C)CC(C)(C)C)cc3)c3c4cccc5c(Oc6ccc(C(C)(C)CC(C)(C)C)cc6)ccc(c6c(Oc7ccc(C(C)(C)CC(C)(C)C)cc7)cc(c2c36)C1=O)c54 [Example 1]	56 mg/mL (≈ 51.2 mM)	53 mg/mL (≈ 48.4 mM)	>250 mg/mL	–
CC(C)c1cccc(C(C)C)c1N1C(=O)c2cc(Oc3ccc(C(C)(C)CC4CCCCC4)cc3)c3c4c(Oc5ccc(C(C)(C)CC6CCCCC6)cc5)cc5c6c(cc(Oc7ccc(C(C)(C)CC8CCCCC8)cc7)c(c7c(Oc8ccc(C(C)(C)CC9CCCCC9)cc8)cc(c2c37)C1=O)c64)C(=O)N(c1c(C(C)C)cccc1C(C)C)C5=O [Example 3]	87 mg/mL (≈ 53.3 mM)	65 mg/mL (≈ 39.8 mM)	>350 mg/mL	–

From patent US7145010B2, “Tert-alkylphenoxy-substituted polycyclic compounds” (BASF Aktiengesellschaft, priority 2001, dated 2006)
